Row | Structure (SMILES) | melting point [°C]
1 | CN1CCN(C(=O)c2c(N3CCN(C(=O)c4ccco4)CC3)n(-c3ccccc3)c3ccccc23)CC1 | 180 to 181
2 | CCCCC(CC)COc1cccc(N2C(C)=CC(=C=C3C(C#N)C(=C(C#N)C#N)OC3(C)C)C=C2C)c1 (stereo not given) | 181
3 | CCCCCCCCCCCCCCCCCCOC(=O)C1CCC2OC2C1 (stereo not given) | 32 to 34
4 | O=S1(=O)c2cccc3c(Cl)ccc(c23)N1CCCN1CC=C(c2ccccc2)CC1 | 135
5 | COc1ccc(S(=O)(=O)N2CCn3c(c(C(N)=O)c(Cl)c3-c3ccccc3)C2)cc1 | 194 to 195
6 | C=C(C)C1CCC(C)(C(=O)O)C1=C (stereo not given) | 66.5 to 68
7 | Cc1cc(OCc2ccc(-c3ccccc3-c3nnn(C(c4ccccc4)(c4ccccc4)c4ccccc4)n3)cc2)c(-c2cncnc2)c(C)n1 | 171 to 172
8 | CCN(CC)CCNc1ccc2c3c(nn2CCO)-c2c(O)ccc(O)c2C(=O)c13 | 231 to 234
9 | COC(=O)c1ccc(C(=O)NS(=O)(=O)c2ccccc2)cc1 | 267 to 270
10 | CC(C)(CO)Cc1cccc(C(O)c2cccc(CC(C)(C)CO)c2)c1 | 98 to 99
11 | CCC[C@H]1C(=O)N(S(=O)(=O)c2cccc3ccccc23)[C@H]2CCN(S(C)(=O)=O)[C@H]12 (relative stereo) | 185 to 187
12 | CC(C)OC(=Cn1ccnc1)c1ccc(Cl)cc1Cl | 184 to 186
13 | O=C1c2ccccc2CN1C1CCN(c2ccc(C(OCc3ccccc3)c3ccccc3)cc2)CC1 (stereo not given) | 112 to 115
14 | O=C(Nc1cc(C(=O)O)cc(C(=O)O)c1)Oc1ccc([N+](=O)[O-])cc1 | > 300
15 | CCCCCC(=O)CCC(=O)O | 67 to 68
16 | CC(=O)c1cc(N=C=O)cc(C(C)=O)c1 | 71
17 | COc1ccc(-n2c(=O)c(O)nc3cccnc32)cc1 | > 300
18 | CN(C(=O)CN(C(=O)CNC(=O)OC(C)(C)C)c1ccccc1OCc1ccccc1)c1ccccc1 | 168 to 170
19 | Cc1c(-c2ccccc2)n[nH]c1-c1ccccc1 | 225 to 226
20 | O=C1c2ccccc2C(=O)N1CCOc1cccc2c1CCC2 | 128 to 132
21 | CC(O)C1CCC2C3CCC4=CC(O)CCC4(C)C3CCC12C (stereo not given) | 169 to 170
22 | O=C1NCc2c1cc1ccc3c(c1c2-c1ccc2c(c1)OCO2)OCC3 | 275 to 277
23 | COc1ccc(N2CCN(c3ccc(OC)nc3-c3ccc(N(C)C)cc3)CC2)cc1 | 163 to 165
24 | CNC(=O)ON=C1SCC(=O)N(C)C1C (stereo not given) | 161 to 163

Row | Structure (SMILES) | melting point [°C]
25 | Fc1ccc(Oc2ccc(-c3c[nH]cn3)cc2)cc1 | 165 to 168
26 | N#CCNC(=O)c1cccc2ccccc12 | 160 to 163
27 | Cc1nc(-n2cnn(Cc3ccc(F)cc3)c2=O)sc1C(=O)NCc1cccnc1 | 178 to 179
28 | Cn1cc(C(=O)c2ccncc2)cc1C(=O)c1ccccc1 | 127 to 129
29 | Clc1ccc(NNc2ccc(Cl)cc2)cc1 | 120 to 121
30 | Cc1c(C)c2c(c(C)c1O)CCC(C)(C(=O)NC1CCN(c3ccc(NC(=N)c4cccs4)cc3)C1)O2 (stereo not given) | 135 to 138
31 | Cn1cc(C(=O)O)c(=O)c2c3ccc(F)c(N4CCC(O)(c5cccc(C(F)(F)F)c5)CC4)c3ncc21 | 245
32 | O=c1ccn(-c2cc3[nH]c(=O)c(=O)[nH]c3cc2[N+](=O)[O-])cc1F | > 300
33 | O=S1(=O)N=CN(C2CC2)c2ccccc21 | 191 to 194
34 | N#CC1(C2CCCc3ccccc32)CC1 (stereo not given) | 91 to 93
35 | Clc1ccc2c(c1)N=C(NCCCn1ccnc1)c1ccccc1N2 | 228 to 230
36 | O=C(c1ccc(-n2nc(-c3ccccc3O)nc2-c2ccccc2O)cc1)N1CCOCC1 | 157 to 160
37 | CC(C)(C(=O)O)C1OCCc2ccccc21 (stereo not given) | 110 to 116
38 | CCOc1ccc(C=CC(=O)c2c(OC)cc(OC)cc2OC(=O)CC)cc1 | 105
39 | FC(F)(F)c1cc(Oc2cc(Oc3ccc(Cl)c(C(F)(F)F)c3)ncn2)ccc1Cl | 111
40 | O=C1N(C2=NCCS2)c2ccccc2C12SCCS2 | 154 to 157
41 | CCOc1cccc2cc(C(=O)C34CC5CC(CC(C5)C3)C4)oc12 | 84 to 86
42 | COc1ccc(Cc2cc3cccc(-c4cccc(C(=O)NCCO)c4)c3s2)cn1 | 138 to 139
43 | CCc1csc(NC(=O)Nc2ccc(N3CCN(C(=O)Nc4ccc(OCCO)cc4C(F)(F)F)CC3)cc2)n1 | 124 to 125
44 | CC(=O)OCc1c(-c2cc(Nc3cc4n(n3)CCN(C3COC3)C4)c(=O)n(C)n2)cccc1-n1ncc2cc(C(C)(C)C)cc(F)c2c1=O | 180 to 185
45 | COc1ccccc1CNc1ccc2cc(Nc3nc4cc(C)ccc4o3)ccc2n1 | 220
46 | CCCCC(CCCC)C(=O)O[C@H]1C[C@H](O)C=C2C=C[C@H](C)[C@H](CC[C@@H]3C[C@@H](O)CC(=O)O3)[C@H]21 | 143 to 145
47 | CCc1cc(=O)n(-c2cc(OC(C)C)c(Cl)cc2F)c(=O)n1C | 72 to 74
48 | CCOC(=O)C1=C(C)NC(C)=C(C(=O)OCCN2CCN(C(c3ccc(C)cc3)c3ccc(C)cc3)CC2)C1c1cccc(Cl)c1Cl (stereo not given) | 85 to 88

Second part, the compound after the results:

Row | melting point [°C] | Structure (SMILES)
49 | 164 to 166 | CS(=O)CC(=O)c1cc(-c2ccccc2)on1 (stereo not given)
50 | > 300 | CCOC(=O)c1cnc2c3cc(NC(=O)Nc4ccccc4)ccc3c(C)cn2c1=O
51 | 113 to 115 | COc1cc(N2CCC(Br)C2=O)ccc1Cl (stereo not given)
52 | 128 | CCOC(=O)C(=NNc1ccc([N+](=O)[O-])cc1)C(C)=O
53 | 213 to 215 | O=C(O)c1ccc(Cc2ccc(O)cc2)cn1
54 | 183 to 185 | COc1ncc(C(F)(F)F)cc1-c1cccn2nc(Cl)nc12
55 | 165 to 167 | CC(C)(C)Sc1c(CC(C)(C)C(=O)O)n(Cc2ccc(Cl)cc2)c2cc(OCc3ccc4ccccc4n3)ccc12
56 | 115 to 117 | N#Cc1[nH]c2ccc(Cl)cc2c1-c1ccccc1
57 | 330 | O=c1ncnc2cc3[nH][nH]cc3cc12
58 | > 300 | NC(=O)c1ncn2c1nc(N1CCOCC1)c1ccccc12
59 | 197 to 199 | CNc1nc(-c2cccc(NC(=O)c3ccccc3Cl)c2)c2cc(OC)c(OC)cc2n1
60 | 198 to 200 | Cn1c2c(c3ccccc3c1=O)C(=O)c1cc(OCc3ccccc3)c(OCc3ccccc3)cc1-2
61 | 129 to 130 | CC(C)(C)c1cc(Oc2ccc(N)cc2)ccc1Oc1ccc(N)cc1
62 | 144 to 145 | FC(F)(F)c1ccc2c(c1)nc(/C=C/c1ccccc1)n2-c1ccccn1
63 | 101 to 103 | C=CCOc1ccc(-c2c(OC(C)C)cccc2C(=O)O)c(OC)c1
64 | 242 to 244 | Clc1cc(CCc2ccccn2)c2oc(-c3ccc4[nH]nnc4c3)nc2c1
65 | 88 to 91 | CCCCCCCCCc1ccc(C(Sc2cccc(NC(=O)CC(=O)O)c2)C(=O)CCCC(=O)O)cc1 (stereo not given)
66 | 131 | CC1(c2cccc(Cl)c2)OC(C(=O)O)Oc2ccc(Cl)cc21 (stereo not given)
67 | 230 to 231 | COc1ccc(C(=O)NC(CC(C)C)C(=O)O)c(SSc2cc(OC)ccc2C(=O)NC(CC(C)C)C(=O)O)c1 (stereo not given)
68 | 41 to 43 | CC(=O)c1cccc([N+](=O)[O-])c1Cl
69 | 259 | O=C(NN=CC=Cc1ccc([N+](=O)[O-])o1)c1cc2ccccc2cc1O
70 | 222 | O=C(N[C@H]1CC[C@H](CCN2CCN(c3nccc4c3OCC4)CC2)CC1)c1ccnc2ccccc12
71 | 98 to 99 | NC(=O)c1cccc(OCCCCCBr)c1
72 | 199 to 203 | CC(=O)Nc1cc([N+](=O)[O-])c(C(=O)O)c([N+](=O)[O-])c1O

Row | melting point [°C] | Structure (SMILES)
73 | 240 | CC1(C)C(=O)Nc2cc3[nH]c(-c4ccc(O)cc4)nc3cc21
74 | 114 to 115 | CN1CCCNC1=C[N+](=O)[O-]
75 | 188 to 190 | O=C(C=NNc1cc(Oc2ncccn2)c(Cl)cc1F)C(F)(F)F
76 | 69 to 70 | O=S(Sc1ccccc1)c1ccccc1 (stereo not given)
77 | 292 to 294 | CN(Cc1cccc2c1CN(C1CCC(=O)NC1=O)C2=O)C(=O)Nc1cccc2ccccc12 (stereo not given)
78 | > 275 | CCOC(=O)NC(=N)c1ccc(N2CCN(c3ccc(CCC(=O)OC)cc3)S2(=O)=O)cc1
79 | 129 to 130 | COc1c(C)c(C)c(OC)c(C(O)(c2ccc(F)cc2)C(C)C)c1C (stereo not given)
80 | 95 to 96 | CCOC(=O)c1cn(Cc2ccccc2)nc1OCc1cccc(OCc2nc(-c3ccccc3)oc2C)c1
81 | 89.5 to 90.5 | O=Cc1ccc(OCC=Cc2ccccc2)cc1
82 | 188 to 190 | COc1ccc(-c2cc3ccccc3s2)cc1
83 | 70 | CC(C)(C)OC(=O)NCCCCC(=O)NCCC(=O)O
84 | 68 | CCOc1ccc(C(OC(C)=O)c2sccc2C=O)cc1OCC (stereo not given)
85 | 122 | O=C(O)Cc1ccc(COc2cccc(-c3c(-c4ccccc4)cnc4c(C(F)(F)F)cccc34)c2)cc1
86 | 122 to 126 | COc1ccc(Cn2c(N)c(C#N)c3c2CCCC3)cc1
87 | 165 to 166 | CC1=C(C(=O)OC(C)C)C(c2cccc([N+](=O)[O-])c2)N(C(=O)N(C)C)C(=O)N1 (stereo not given)
88 | 71 to 73 | CCOC(=O)COc1c(C)cc(C)c2c1CC(Br)C2=O (stereo not given)
89 | 93 to 95 | OCCc1nccn1CCCCc1ccc(OCc2coc(/C=C/c3ccc(F)cc3F)n2)cc1
90 | 254 | Cc1cc2n(C)c(=O)c3cnc(Cl)cc3n2n1
91 | 77 to 79 | CCCCC(Oc1ccc(C#N)cc1C=O)C(=O)OC (stereo not given)
92 | 107 to 112 | CN(CC(=O)N(C)c1ccc(OCC(=O)N[C@@H](CC(N)=O)C(=O)[C@@H](C(N)c2ccccc2)[C@H](O)C(=O)N2CCC[C@H]2C(=O)NC(C)(C)C)cc1)c1ccccc1 (stereo not given in full)
93 | 155 to 158 | Cc1cc(O)c(C)c2c1NCC2
94 | 157 to 159 | CCCC(CCC)c1ccc(OCc2ccc(-c3csc(COc4cncc(C(=O)O)c4)c3)cc2)cc1
95 | 173 to 174 | CC(C)C[C@H]1[C@@H]2C(=O)N(Cc3ccccc3)C(=O)[C@@H]2[C@H](c2ccc(C#N)cc2)N1C (racemic)

— a melting point compilation (Tetko et al.; mined from patent text by program, amines drawn as free bases though some values may be those of a salt)
